The text below walks through data of US7166622B2, “Substituted phenylsulfonamide inhibitors of beta amyloid production” (Wyeth, priority 2002, dated 2007).

In data set [1] the test system is beta amyloid production. Put plainly: Repressor Release Assay (RRA). It is filed as cell-based. The note with it: Conc 20 μg/ml; luciferase activity over diluent control; read-out: APPI Fold Increase. An outline of the steps:
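Read-out is luciferase luminescence (RLU) after 36-48 h duplicate compound exposure of transfected CHO-K1 cells. These cells carry transiently introduced APP-lacI and pRSVO-luc DNA. Diluent control was 25 mM Hepes/1% DMSO; toxicity recorded as binary score (1 non-toxic, 0 toxic).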

Data set [2] relates to CHO-K1 cells. Put plainly: Toxicity in RRA (loss of luciferase signal). The note with it: Conc 20 μg/ml; toxicity = loss of signal (<0.75 fold increase).
Description: The beta amyloid inhibitory activity of the compounds of the present invention was determined using the Repressor Release Assay (RRA).
“Fold Increase” refers to the amount of luciferase activity (measured in relative light units) over diluent control. “SEM” refers to the standard error of the mean for fold increase.

For orientation: melting point means the temperature, or range, at which the solid turns liquid. In turn, `CC(C)[C@@H](CO)NS(=O)(=O)c1ccc(Br)cc1` [Example 275, 4-Bromo-N-[(1S)-1-(hydroxymethyl)-2-methylpropyl]benzenesulfonamide] had a melting point of 89 to 94 °C. Besides, the fold induction at 20 µg/mL in data set [1] is 2. Moreover, in data set [2], the “(%)APPI Toxicity” value is listed as 1 (1=non-toxic).
The matching figures for `CC[C@H](C)[C@@H](CO)NS(=O)(=O)c1ccc(I)cc1` [Example 276, 4-Iodo-N-[(1S,2S)-1-(hydroxymethyl)-2-methylbutyl]benzenesulfonamide]: 118 to 120 °C, 2 and 1 (1=non-toxic).
As to `CC[C@H](C)[C@@H](CO)NS(=O)(=O)c1ccc(Cl)c(N)c1` [Example 14, 3-Amino-4-chloro-N-[(1S,2S)-1-(hydroxymethyl)-2-methylbutyl]benzenesulfonamide], the melting point is 89 to 92 °C. For the same compound, the fold induction at 20 µg/mL in data set [1] came out at 1.9. In addition, the “(%)APPI Toxicity” value in data set [2] was 1 (1=non-toxic).
The matching figures for `O=S(=O)(N[C@H](CO)C1CCCCC1)c1ccc(Cl)cc1` [Example 272, 4-Chloro-N-[(1S)-1-cyclohexyl-2-hydroxyethyl]benzenesulfonamide]: 115 to 118 °C, 2.3 and 1 (1=non-toxic).
`O=S(=O)(N[C@H](CO)c1ccccc1)c1ccc(Cl)cc1` [Example 273, 4-Chloro-N-[(1S)-2-hydroxy-1-phenylethyl]benzenesulfonamide] displayed a melting point of 127 to 128 °C. The fold induction at 20 µg/mL in data set [1] turned out to be 1.5. Besides, in data set [2], the “(%)APPI Toxicity” value was 1 (1=non-toxic).
The compound `CC(C)(C)[C@@H](CO)NS(=O)(=O)c1ccc(Cl)cc1` [Example 277, 4-Chloro-N-[(1S)-1-(hydroxymethyl)-2,2-dimethylpropyl]benzenesulfonamide] returned a melting point of 128 to 130 °C. In addition, in data set [1], the fold induction at 20 µg/mL turned out to be 1.5. Also, the “(%)APPI Toxicity” value in data set [2] was 1 (1=non-toxic).
The matching figures for `CC(C)[C@@H](CO)NS(=O)(=O)c1ccc(Cl)cc1` [Example 274, 4-Chloro-N-[(1S)-1-(hydroxymethyl)-2-methylpropyl]benzenesulfonamide]: 83 to 85 °C, 2.1 and 1 (1=non-toxic).
